Columns and labels:
[1] = molecular target: T1, human EHMT2 913-1193 (Homo sapiens, UniProt Q96KQ7); test: EHMT2 enzyme assay on histone peptide substrate (EHMT2 PEP); type: biochemical; details: Table III; read-out: EHMT2 PEP (IC50 μM)
T1 construct: recombinant purified human EHMT2 913-1193, Viva; purchased Viva
T1 sequence (Q96KQ7 913-1193): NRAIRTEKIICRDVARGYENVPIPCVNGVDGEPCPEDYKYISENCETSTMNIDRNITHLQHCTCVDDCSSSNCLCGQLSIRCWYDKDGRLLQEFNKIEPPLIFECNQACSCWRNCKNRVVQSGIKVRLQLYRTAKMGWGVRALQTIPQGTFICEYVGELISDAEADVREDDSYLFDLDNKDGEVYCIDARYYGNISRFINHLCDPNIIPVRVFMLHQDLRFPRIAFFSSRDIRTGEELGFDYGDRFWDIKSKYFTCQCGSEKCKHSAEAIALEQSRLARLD
Procedure, shortened: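 Radiometric methyltransferase assay: 0.031 nM EHMT2 913-1193 preincubated 30 min with compound (10-point 3-fold series, top final 50 μM, 2% DMSO) in 20 mM Bicine pH 7.5, 1 mM TCEP. Biotinylated histone peptide methylated with ^3H-SAM for 60 min at room temperature, quenched with unlabeled SAM, captured on streptavidin Flashplates and counted.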

[2] = molecular target: T2, EHMT1 (Homo sapiens, UniProt Q9H9B1); test: EHMT1 enzyme assay on peptide substrate (EHMT1 PEP); type: biochemical; details: Table III; read-out: EHMT1 PEP (IC50 μM)
T2 sequence (Q9H9B1 1-1298): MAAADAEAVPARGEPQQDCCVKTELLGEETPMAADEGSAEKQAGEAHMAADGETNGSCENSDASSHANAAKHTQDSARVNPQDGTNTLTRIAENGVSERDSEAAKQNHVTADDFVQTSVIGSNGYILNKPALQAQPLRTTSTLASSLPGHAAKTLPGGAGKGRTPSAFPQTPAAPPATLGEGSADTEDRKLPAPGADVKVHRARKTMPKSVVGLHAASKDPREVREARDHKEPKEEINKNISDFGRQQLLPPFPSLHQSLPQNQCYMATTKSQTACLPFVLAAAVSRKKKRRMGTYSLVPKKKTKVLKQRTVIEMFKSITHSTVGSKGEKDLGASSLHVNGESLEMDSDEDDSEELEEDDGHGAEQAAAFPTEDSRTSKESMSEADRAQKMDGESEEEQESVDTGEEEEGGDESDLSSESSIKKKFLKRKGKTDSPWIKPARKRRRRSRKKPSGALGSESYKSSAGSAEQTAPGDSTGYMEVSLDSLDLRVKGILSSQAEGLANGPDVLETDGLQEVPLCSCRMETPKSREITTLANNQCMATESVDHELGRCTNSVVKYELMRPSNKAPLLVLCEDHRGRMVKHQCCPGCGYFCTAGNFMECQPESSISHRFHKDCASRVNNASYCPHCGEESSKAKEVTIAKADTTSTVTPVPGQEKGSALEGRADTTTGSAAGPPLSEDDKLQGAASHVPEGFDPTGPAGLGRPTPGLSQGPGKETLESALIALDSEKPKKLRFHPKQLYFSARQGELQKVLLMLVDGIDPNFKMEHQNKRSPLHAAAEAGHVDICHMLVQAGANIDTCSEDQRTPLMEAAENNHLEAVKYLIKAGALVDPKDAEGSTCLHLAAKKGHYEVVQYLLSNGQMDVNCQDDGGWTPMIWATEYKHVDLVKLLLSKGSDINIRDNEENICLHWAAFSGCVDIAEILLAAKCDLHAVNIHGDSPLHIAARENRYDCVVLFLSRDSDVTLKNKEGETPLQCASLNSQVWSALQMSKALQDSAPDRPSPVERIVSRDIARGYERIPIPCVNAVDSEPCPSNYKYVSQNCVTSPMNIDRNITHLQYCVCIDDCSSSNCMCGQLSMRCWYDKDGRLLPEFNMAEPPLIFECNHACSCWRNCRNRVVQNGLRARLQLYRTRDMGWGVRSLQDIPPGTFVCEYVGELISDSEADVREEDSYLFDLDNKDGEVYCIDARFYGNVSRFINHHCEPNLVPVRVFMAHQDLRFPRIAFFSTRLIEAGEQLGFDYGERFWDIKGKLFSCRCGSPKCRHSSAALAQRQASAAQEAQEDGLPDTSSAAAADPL

Question: What does the source list for `CNc1cc(Nc2cc(OCCCN3CCCC3)c(OC)cn2)ccn1` [Compound 372]?
Answer: IC50 [1]: < 0.1 µM; IC50 [2]: < 0.1 µM

Question: Which results are given for `COc1ccc(Nc2nccc3[nH]ncc23)cc1OCCCN1CCCC1` [Compound 373]?
Answer: IC50 [1]: > 10 µM; IC50 [2]: > 10 µM

Question: What does the source list for `COc1ccc(Nc2ccnc3[nH]ccc23)cc1OCCCN1CCCC1` [Compound 374]?
Answer: IC50 [1]: 1 to 10 µM; IC50 [2]: 1 to 10 µM

Question: Which results are given for `CC(C)Nc1ccnc(Nc2cccc(OCCCN3CC[C@@H](F)C3)c2)n1` [Compound 375]?
Answer: IC50 [1]: > 10 µM; IC50 [2]: > 10 µM

Question: `COc1ccc(Nc2nccc(NC(C)C3CCOCC3)n2)cc1OCCCN1CCCC1` (stereo not drawn) [Compound 378] was tested. Which IC50 [1] did it give?
Answer: 0.1 to 1 µM

Question: And the IC50 [2]?
Answer: 0.1 to 1 µM

Question: `CNc1ccnc(Nc2ccc(OC)c(OCCCN3CCCC3)c2)c1` [Compound 379] was tested. Which IC50 [1] did it give?
Answer: 0.1 to 1 µM

Question: What about the IC50 [2] of the same compound?
Answer: 1 to 10 µM

Question: With `CNc1ccnc(Nc2ccc3ccn(CCN4CCCC4)c(=O)c3c2)n1` [Compound 381] as the compound, how does the IC50 [1] read?
Answer: 1 to 10 µM

Question: What about the IC50 [2] of the same compound?
Answer: > 10 µM

Question: What does the source list for `CNc1ccnc(Nc2ccc(OC)c(COCCN3CCCC3)c2)n1` [Compound 382]?
Answer: IC50 [1]: 0.1 to 1 µM; IC50 [2]: 0.1 to 1 µM

Question: Which results are given for `CNc1ccnc(Nc2cccc(COCCN3CCCC3)c2)n1` [Compound 383]?
Answer: IC50 [1]: 1 to 10 µM; IC50 [2]: 1 to 10 µM

Question: With `CNc1cc(C#N)nc(Nc2ccc(OC)c(OCCCN3CCCC3)c2)n1` [Compound 384] as the compound, how does the IC50 [1] read?
Answer: > 10 µM

Question: What about the IC50 [2] of the same compound?
Answer: > 10 µM

Question: Which results are given for `CCc1cc(NC)nc(Nc2ccc(OC)c(OCCCN3CC[C@@H](F)C3)c2)n1` [Compound 385]?
Answer: IC50 [1]: 0.1 to 1 µM; IC50 [2]: 0.1 to 1 µM

Question: How did the IC50 [1] turn out when `CNc1ccnc(Nc2ccc3cnn(CCN(C)C)c3c2)n1` [Compound 386] was run?
Answer: > 10 µM

Question: What about the IC50 [2] of the same compound?
Answer: > 10 µM

Question: Which results are given for `CNc1ccnc(Nc2ccc(OC)c(OCCCN(C)C)c2)n1` [Compound 387]?
Answer: IC50 [1]: 0.1 to 1 µM; IC50 [2]: < 0.1 µM

Question: What does the source list for `CNc1ccnc(Nc2ccc3cnn(CCCN(C)C)c3c2)n1` [Compound 388, N^2-(1-(3-(dimethylamino)propyl)-1H-indazol-6-yl)-N^4-methylpyrimidine-2,4-diamine]?
Answer: IC50 [1]: > 10 µM; IC50 [2]: > 10 µM

Question: Which IC50 [1] does the source give for `CNc1ccnc(Nc2ccc3c(C)nn(CCCN(C)C)c3c2)n1` [Compound 389] here?
Answer: > 10 µM

Question: What about the IC50 [2] of the same compound?
Answer: > 10 µM

Question: For `CNc1ccnc(Nc2ccc(OC)c(OCCCN3CCCCC3)c2)n1` [Compound 390], which IC50 [1] is on record?
Answer: 0.1 to 1 µM

Question: And the IC50 [2]?
Answer: 0.1 to 1 µM

Question: How did the IC50 [1] turn out when `CNc1cc(C)nc(Nc2cccc(OCCCN3CCCC3)c2)n1` [Compound 391] was run?
Answer: 0.1 to 1 µM

Question: And the IC50 [2]?
Answer: 0.1 to 1 µM

Question: What does the source list for `COc1ccc(Nc2nccc(NCC(F)(F)F)n2)cc1OCCCN1CCCC1` [Compound 392]?
Answer: IC50 [1]: 0.1 to 1 µM; IC50 [2]: 0.1 to 1 µM

Question: Which results are given for `CNc1ccnc(Nc2ccc(OC)c(OCC3CCN(C)C3)c2)n1` (stereo not drawn) [Compound 393]?
Answer: IC50 [1]: 0.1 to 1 µM; IC50 [2]: < 0.1 µM

Question: For `CCNC(=O)c1cccc(Nc2nccc(NC)n2)c1` [Compound 394], which IC50 [1] is on record?
Answer: > 10 µM

Question: What about the IC50 [2] of the same compound?
Answer: > 10 µM

Question: Which results are given for `CCNC(=O)c1cc(Nc2nccc(NC)n2)ccc1OC` [Compound 395]?
Answer: IC50 [1]: > 10 µM; IC50 [2]: > 10 µM

Question: How did the IC50 [1] turn out when `CCNC(=O)c1cc(Nc2nccc(NC)n2)ccc1Cl` [Compound 396] was run?
Answer: > 10 µM

Question: What about the IC50 [2] of the same compound?
Answer: 1 to 10 µM

Question: With `CNc1ccnc(Nc2cccc(N3CCC(N(C)C)C3)c2)n1` (stereo not drawn) [Compound 397] as the compound, how does the IC50 [1] read?
Answer: > 10 µM

Question: And the IC50 [2]?
Answer: > 10 µM

Question: With `CNc1ccnc(Nc2ccc(Cl)c(OCCCN3CCCC3)c2)n1` [Compound 398] as the compound, how does the IC50 [1] read?
Answer: 0.1 to 1 µM

Question: What about the IC50 [2] of the same compound?
Answer: 0.1 to 1 µM

Question: `CNc1ccnc(Nc2cccc(N3CCC(N)C3)c2)n1` (stereo not drawn) [Compound 400] was tested. Which IC50 [1] did it give?
Answer: 1 to 10 µM

Question: And the IC50 [2]?
Answer: > 10 µM

Question: What does the source list for `COc1ccc(Nc2ccc3cn(C)nc3n2)cc1OCCCN1CCCC1` [Compound 402]?
Answer: IC50 [1]: > 10 µM; IC50 [2]: > 10 µM

Question: With `CNc1ccnc(Nc2ccc3cn(CCN(C)C)nc3c2)n1` [Compound 404, N^2-(2-(2-(dimethylamino)ethyl)-2H-indazol-6-yl)-N^4-methylpyrimidine-2,4-diamine] as the compound, how does the IC50 [1] read?
Answer: > 10 µM

Question: And the IC50 [2]?
Answer: > 10 µM

Question: What does the source list for `CNc1ccnc(Nc2ccc3cn(CCCN(C)C)nc3c2)n1` [Compound 405]?
Answer: IC50 [1]: > 10 µM; IC50 [2]: > 10 µM

Question: For `CNc1ccnc(Nc2ccc(OC)c(COC3CCN(C)C3)c2)n1` (stereo not drawn) [Compound 407, N^2-(4-methoxy-3-(((1-methylpyrrolidin-3-yl)oxy)methyl)phenyl)-N^4-methylpyrimidine-2,4-diamine], which IC50 [1] is on record?
Answer: 0.1 to 1 µM

Question: What about the IC50 [2] of the same compound?
Answer: 0.1 to 1 µM

Question: `CCN1CCC(COc2cc(Nc3nccc(NC)n3)ccc2OC)C1` (stereo not drawn) [Compound 408, N^2-(3-((1-ethylpyrrolidin-3-yl)methoxy)-4-methoxyphenyl)-N^4-methylpyrimidine-2,4-diamine] was tested. Which IC50 [1] did it give?
Answer: 0.1 to 1 µM

Question: What about the IC50 [2] of the same compound?
Answer: 0.1 to 1 µM

Question: Which results are given for `CNc1ccnc(Nc2ccc(OC)c(OCC3CCN(C(C)C)C3)c2)n1` (stereo not drawn) [Compound 409, N^2-(3-((1-isopropylpyrrolidin-3-yl)methoxy)-4-methoxyphenyl)-N^4-methylpyrimidine-2,4-diamine]?
Answer: IC50 [1]: < 0.1 µM; IC50 [2]: < 0.1 µM

Question: With `CNc1ccnc(Nc2ccc(OC)c(OCC3CCN(CCOC)C3)c2)n1` (stereo not drawn) [Compound 410, N^2-(4-methoxy-3-((1-(2-methoxyethyl)pyrrolidin-3-yl)methoxy)phenyl)-N^4-methylpyrimidine-2,4-diamine] as the compound, how does the IC50 [1] read?
Answer: 1 to 10 µM

Question: What about the IC50 [2] of the same compound?
Answer: 1 to 10 µM

Question: What does the source list for `CNc1ccnc(Nc2ccc(OC)c(OCC3CCN(C4CC4)C3)c2)n1` (stereo not drawn) [Compound 411, N^2-(3-((1-cyclopropylpyrrolidin-3-yl)methoxy)-4-methoxyphenyl)-N^4-methylpyrimidine-2,4-diamine]?
Answer: IC50 [1]: < 0.1 µM; IC50 [2]: < 0.1 µM

Question: `CNc1ccnc(Nc2ccc(OC)c(OCC3CCCN(C)C3)c2)n1` (stereo not drawn) [Compound 412, N^2-(4-methoxy-3-((1-methylpiperidin-3-yl)methoxy)phenyl)-N^4-methylpyrimidine-2,4-diamine] was tested. Which IC50 [1] did it give?
Answer: 0.1 to 1 µM

Question: What about the IC50 [2] of the same compound?
Answer: 0.1 to 1 µM

Question: Which results are given for `CNc1cc(C)nc(Nc2ccc(OC)c(OCC3CCCN(C)C3)c2)n1` (stereo not drawn) [Compound 413, N^2-(4-methoxy-3-((1-methylpiperidin-3-yl)methoxy)phenyl)-N^4,6-dimethylpyrimidine-2,4-diamine]?
Answer: IC50 [1]: 0.1 to 1 µM; IC50 [2]: 0.1 to 1 µM

Question: For `CNc1ccnc(Nc2ccc(OC)c(OCCCN3CC(O)C3)c2)n1` [Compound 414, 1-(3-(2-methoxy-5-((4-(methylamino)pyrimidin-2-yl)amino)phenoxy)propyl)azetidin-3-ol], which IC50 [1] is on record?
Answer: < 0.1 µM

Question: And the IC50 [2]?
Answer: < 0.1 µM

Question: Which results are given for `CCCN1CCC(COc2cc(Nc3nccc(NC)n3)ccc2OC)C1` (stereo not drawn) [Compound 420, N^2-(4-methoxy-3-((1-propylpyrrolidin-3-yl)methoxy)phenyl)-N^4-methylpyrimidine-2,4-diamine]?
Answer: IC50 [1]: 0.1 to 1 µM; IC50 [2]: 0.1 to 1 µM

Question: Which results are given for `CNc1cc(C)nc(Nc2ccc(OC)c(COC3CCN(C)C3)c2)n1` (stereo not drawn) [Compound 421, N^2-(4-methoxy-3-(((1-methylpyrrolidin-3-yl)oxy)methyl)phenyl)-N^4,6-dimethylpyrimidine-2,4-diamine]?
Answer: IC50 [1]: 0.1 to 1 µM; IC50 [2]: 0.1 to 1 µM

Question: Which results are given for `CNc1ccnc(Nc2ccc(OC)c(OCC3CCN(CC4CC4)C3)c2)n1` (stereo not drawn) [Compound 422, N^2-(3-((1-(cyclopropylmethyl)pyrrolidin-3-yl)methoxy)-4-methoxyphenyl)-N^4-methylpyrimidine-2,4-diamine]?
Answer: IC50 [1]: 0.1 to 1 µM; IC50 [2]: 0.1 to 1 µM
